From patent US8809367B2, “1-1-Oxo-1,2,3,4-tetrahydroisoquinolin-7-yl)urea derivatives as N-formyl peptide receptor like-1 (FPRL-1) receptor modulators” (Allergan, Inc., priority 2011, dated 2014)

Target: T1, FPRL-1 (Homo sapiens, UniProt P25090)
T1 construct: expressed in transfected cells
T1 sequence (P25090 1-351): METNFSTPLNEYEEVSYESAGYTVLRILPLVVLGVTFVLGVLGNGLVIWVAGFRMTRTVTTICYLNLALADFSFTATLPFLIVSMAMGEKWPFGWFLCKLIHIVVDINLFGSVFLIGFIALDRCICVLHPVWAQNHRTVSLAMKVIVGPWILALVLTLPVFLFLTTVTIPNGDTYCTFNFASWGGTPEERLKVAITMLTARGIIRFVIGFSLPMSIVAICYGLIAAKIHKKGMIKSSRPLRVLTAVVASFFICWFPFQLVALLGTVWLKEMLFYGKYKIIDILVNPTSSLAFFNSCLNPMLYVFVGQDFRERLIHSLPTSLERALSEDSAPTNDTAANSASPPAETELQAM
Experiment: compound-induced calcium activity on FLIPR Tetra in CHO-Ga16 cells stably expressing FPRL1
Format: cell-based
Settings: for FPRL-1 Ga16-CHO (eff): efficacy value in brackets under EC50; for EC50: tested at 0.61 to 10,000 nM
Protocol: CHO-Ga16 cells stably expressing FPRL1 were cultured in (F12, 10% FBS, 1% PSA, 400 μg/ml geneticin and 50 μg/ml hygromycin) and HEK-Gqi5 cells stable expressing FPR1 were cultured in (DMEM high glucose, 10% FBS, 1% PSA, 400 μg/ml geneticin and 50 μg/ml hygromycin). In general, the day before the experiment, 18,000 cells/well were plated in a 384-well clear bottom poly-d-lysine coated plate. The following day the screening compound-induced calcium activity was assayed on the FLIPR^Tetra. The drug plates were prepared in 384-well microplates using the EP3 and the MultiPROBE robotic liquid handling systems. Compounds were tested at concentrations ranging from 0.61 to 10,000 nM. Results are expressed as EC50 (nM) and efficacy values.

| Compound | FPRL-1 Ga16-CHO (eff) | EC50 [nM] |
| --- | --- | --- |
| CC(=O)c1ccc(NC(=O)Nc2ccc3c(c2)C(=O)N(CCCN)C(c2ccc(C#N)cc2)C3)cc1 (stereo not drawn) [Compound 1, 1-(4-acetylphenyl)-3-[2-(3-aminopropyl)-3-(4-cyanophenyl)-1-oxo-1,2,3,4-tetrahydroisoquinolin-7-yl]urea] | (1.00) | 40 |
| CC(=O)c1ccc(NC(=O)Nc2ccc3c(c2)C(=O)N(CCN)C(c2ccc(C#N)cc2)C3)cc1 (stereo not drawn) [Compound 2, 1-(4-acetylphenyl)-3-[2-(2-aminoethyl)-3-(4-cyanophenyl)-1-oxo-1,2,3,4-tetrahydroisoquinolin-7-yl]urea] | (0.90) | 34 |
| CNCCN1C(=O)c2cc(NC(=O)Nc3ccc(C(C)=O)cc3)ccc2CC1c1ccc(C#N)cc1 (stereo not drawn) [Compound 3, 1-(4-acetylphenyl)-3-{3-(4-cyanophenyl)-2-[2-(methylamino)ethyl]-1-oxo-1,2,3,4-tetrahydroisoquinolin-7-yl}urea] | (1.00) | 32 |
| N#Cc1ccc(C2Cc3ccc(NC(=O)Nc4ccc(C(F)(F)F)cc4)cc3C(=O)N2CCCN)cc1 (stereo not drawn) [Compound 4, 1-[2-(3-aminopropyl)-3-(4-cyanophenyl)-1-oxo-1,2,3,4-tetrahydroisoquinolin-7-yl]-3-[4-(trifluoromethyl)phenyl]urea] | (0.78) | 21 |
| CSc1ccc(NC(=O)Nc2ccc3c(c2)C(=O)N(CCCN)C(c2ccc(C#N)cc2)C3)cc1 (stereo not drawn) [Compound 5, 1-[2-(3-aminopropyl)-3-(4-cyanophenyl)-1-oxo-1,2,3,4-tetrahydroisoquinolin-7-yl]-3-[4-(methylthio)phenyl]urea] | (0.70) | 2.5 |
| N#Cc1ccc(C2Cc3ccc(NC(=O)Nc4ccc(Br)cc4)cc3C(=O)N2CCCN)cc1 (stereo not drawn) [Compound 6, 1-[2-(3-aminopropyl)-3-(4-cyanophenyl)-1-oxo-1,2,3,4-tetrahydroisoquinolin-7-yl]-3-(4-bromophenyl)urea] | (1.00) | 31 |
| C[S+]([O-])c1ccc(NC(=O)Nc2ccc3c(c2)C(=O)N(CCCN)C(c2ccc(C#N)cc2)C3)cc1 (stereo not drawn) [Compound 7, 1-[2-(3-aminopropyl)-3-(4-cyanophenyl)-1-oxo-1,2,3,4-tetrahydroisoquinolin-7-yl]-3-[4-(methylsulfinyl)phenyl]urea] | (0.92) |  |
| CS(=O)(=O)c1ccc(NC(=O)Nc2ccc3c(c2)C(=O)N(CCCN)C(c2ccc(C#N)cc2)C3)cc1 (stereo not drawn) [Compound 8, 1-[2-(3-aminopropyl)-3-(4-cyanophenyl)-1-oxo-1,2,3,4-tetrahydroisoquinolin-7-yl]-3-[4-(methylsulfonyl)phenyl]urea] | (0.86) | 10 |
| CCSc1ccc(NC(=O)Nc2ccc3c(c2)C(=O)N(CCCN)C(c2ccc(C#N)cc2)C3)cc1 (stereo not drawn) [Compound 9, 1-[2-(3-aminopropyl)-3-(4-cyanophenyl)-1-oxo-1,2,3,4-tetrahydroisoquinolin-7-yl]-3-[4-(ethylthio)phenyl]urea] | (1.0) | 23 |
| CSc1ccc(NC(=O)Nc2ccc3c(c2)C(=O)N(CCCN)[C@H](c2ccc(C#N)cc2)C3)cc1 [Compound 10, (S)-1-[2-(3-aminopropyl)-3-(4-cyanophenyl)-1-oxo-1,2,3,4-tetrahydroisoquinolin-7-yl]-3-[4-(methylthio)phenyl]urea] | (1.0) | 299 |
| CSc1ccc(NC(=O)Nc2ccc3c(c2)C(=O)N(CCCN)[C@@H](c2ccc(C#N)cc2)C3)cc1 [Compound 11, (R)-1-[2-(3-aminopropyl)-3-(4-cyanophenyl)-1-oxo-1,2,3,4-tetrahydroisoquinolin-7-yl]-3-[4-(methylthio)phenyl]urea] | (0.97) | 3.3 |
| CS(=O)(=O)c1ccc(NC(=O)Nc2ccc3c(c2)C(=O)N(CCCN)[C@H](c2ccc(C#N)cc2)C3)cc1 [Compound 14, (S)-1-[2-(3-aminopropyl)-3-(4-cyanophenyl)-1-oxo-1,2,3,4-tetrahydroisoquinolin-7-yl]-3-[4-(methylsulfonyl)phenyl]urea] | (1.3) |  |
| CS(=O)(=O)c1ccc(NC(=O)Nc2ccc3c(c2)C(=O)N(CCCN)[C@@H](c2ccc(C#N)cc2)C3)cc1 [Compound 15, (R)-1-[2-(3-aminopropyl)-3-(4-cyanophenyl)-1-oxo-1,2,3,4-tetrahydroisoquinolin-7-yl]-3-[4-(methylsulfonyl)phenyl]urea] | (0.90) | 29 |
| CSc1ccc(NC(=O)Nc2ccc3c(c2)C(=O)N(CCCN)C(C)C3)cc1 (stereo not drawn) [Compound 16, 1-[2-(3-aminopropyl)-3-methyl-1-oxo-1,2,3,4-tetrahydroisoquinolin-7-yl]-3-[4-(methylthio)phenyl]urea] | (0.89) | 15 |
| CC1Cc2ccc(NC(=O)Nc3ccc(S(C)(=O)=O)cc3)cc2C(=O)N1CCCN (stereo not drawn) [Compound 17, 1-[2-(3-aminopropyl)-3-methyl-1-oxo-1,2,3,4-tetrahydroisoquinolin-7-yl]-3-[4-(methylsulfonyl)phenyl]urea] | (88) | 150 |
| CC(=O)c1ccc(NC(=O)Nc2ccc3c(c2)C(=O)N(CCc2c[nH]cn2)C(c2ccc(C#N)cc2)C3)cc1 (stereo not drawn) [Compound 18, 1-(4-acetylphenyl)-3-{3-(4-cyanophenyl)-2-[2-(1H-imidazol-4-yl)ethyl]-1-oxo-1,2,3,4-tetrahydroisoquinolin-7-yl}urea] | (0.80) | 11 |
| N#Cc1ccc(C2Cc3ccc(NC(=O)Nc4ccc(C(F)(F)F)cc4)cc3C(=O)N2CCc2c[nH]cn2)cc1 (stereo not drawn) [Compound 19, 1-{3-(4-cyanophenyl)-2-[2-(1H-imidazol-4-yl)ethyl]-1-oxo-1,2,3,4-tetrahydroisoquinolin-7-yl}-3-[4-(trifluoromethyl)phenyl]urea] | (0.78) | 32 |
| CC(=O)c1ccc(NC(=O)Nc2ccc3c(c2)C(=O)N(CCc2c[nH]cn2)C(c2ccc(Cl)c(Cl)c2)C3)cc1 (stereo not drawn) [Compound 20, 1-(4-acetylphenyl)-3-{3-(3,4-dichlorophenyl)-2-[2-(1H-imidazol-4-yl)ethyl]-1-oxo-1,2,3,4-tetrahydroisoquinolin-7-yl}urea] | (1.04) | 28 |
| CSc1ccc(NC(=O)Nc2ccc3c(c2)C(=O)N(CCc2c[nH]cn2)C(c2ccco2)C3)cc1 (stereo not drawn) [Compound 23, 1-{3-(2-furyl)-2-[2-(1H-imidazol-4-yl)ethyl]-1-oxo-1,2,3,4-tetrahydroisoquinolin-7-yl}-3-[4-(methylthio)phenyl]urea] | (0.83) | 19 |
| CSc1ccc(NC(=O)Nc2ccc3c(c2)C(=O)N(CCc2c[nH]cn2)C(c2ccc(Cl)o2)C3)cc1 (stereo not drawn) [Compound 24, 1-{3-(5-chloro-2-furyl)-2-[2-(1H-imidazol-4-yl)ethyl]-1-oxo-1,2,3,4-tetrahydroisoquinolin-7-yl}-3-[4-(methylthio)phenyl]urea] | (0.81) | 17 |
| CC(=O)c1ccc(NC(=O)Nc2ccc3c(c2)C(=O)N(CCc2c[nH]cn2)C(c2ccc(Cl)nc2)C3)cc1 (stereo not drawn) [Compound 25, 1-(4-acetylphenyl)-3-{3-(6-chloropyridin-3-yl)-2-[2-(1H-imidazol-4-yl)ethyl]-1-oxo-1,2,3,4-tetrahydroisoquinolin-7-yl}urea] | (0.81) | 24 |
| CSc1ccc(NC(=O)Nc2ccc3c(c2)C(=O)N(CCc2c[nH]cn2)C(c2ccc(Cl)nc2)C3)cc1 (stereo not drawn) [Compound 26, 1-{3-(6-chloropyridin-3-yl)-2-[2-(1H-imidazol-4-yl)ethyl]-1-oxo-1,2,3,4-tetrahydroisoquinolin-7-yl}-3-[4-(methylthio)phenyl]urea] | (0.89) | 6.3 |
| CSc1ccc(NC(=O)Nc2ccc3c(c2)C(=O)N(CCc2c[nH]cn2)C(c2ccc(Cl)cn2)C3)cc1 (stereo not drawn) [Compound 28, 1-{3-(5-chloropyridin-2-yl)-2-[2-(1H-imidazol-4-yl)ethyl]-1-oxo-1,2,3,4-tetrahydroisoquinolin-7-yl}-3-[4-(methylthio)phenyl]urea] | (0.91) | 13.5 |
| C[S+]([O-])c1ccc(NC(=O)Nc2ccc3c(c2)C(=O)N(CCc2c[nH]cn2)C(c2ccc(C#N)cc2)C3)cc1 (stereo not drawn) [Compound 29, 1-{3-(4-cyanophenyl)-2-[2-(1H-imidazol-4-yl)ethyl]-1-oxo-1,2,3,4-tetrahydroisoquinolin-7-yl}-3-[4-(methylsulfinyl)phenyl]urea] | (0.96) | 22 |
| CS(=O)(=O)c1ccc(NC(=O)Nc2ccc3c(c2)C(=O)N(CCc2c[nH]cn2)C(c2ccc(C#N)cc2)C3)cc1 (stereo not drawn) [Compound 30, 1-{3-(4-cyanophenyl)-2-[2-(1H-imidazol-4-yl)ethyl]-1-oxo-1,2,3,4-tetrahydroisoquinolin-7-yl}-3-[4-(methylsulfonyl)phenyl]urea] | (1.00) | 20 |
